Experimental data from publication PMC13128454, “Mutant p53 protein accumulation is selectively targetable by proximity-inducing drugs” (Nature Chemical Biology, 2025).
Where “and” joins values, the source holds several entries; their conditions need not be identical. Equal values may be shown once. Read-outs that look alike come from different tables or passages of the source.

Assays:
Assay type in all cases: cell-based
[1] = test system: Calu-1 cells stably expressing Halo–p53-R273H (FL)–mCherry versus parental Calu-1 cells; assay: flow-cytometry growth competition; conditions: sheet S2E
Procedure: (§1) Cells with and without a fluorescent marker (for example, Halo–p53–mCherry) were mixed and the resulting solution was plated in six-well plates or 10-cm dishes at low density; compound was added at varying concentrations. After reaching confluence, cells were passaged and retreated with compound if needed. Otherwise, cells were trypsinized, washed and resuspended in complete growth medium in 96-well plates or tubes for flow cytometry. Untreated cell mixtures were used to establish gates separating the fluorophore^+/− populations. Analysis was conducted on a CytoFLEX LX flow cytometer.

[2] = test system: Halo–p53-Y220C ΔTAD–mCherry 293T cells versus parental 293T cells; assay: flow-cytometry growth competition; conditions: for normalized_mCherry_percentage: Y220C, day 8, normalized to DMSO
Procedure: as §1

[3] = test system: MFE319 cells stably expressing sgTP53–Cas9–EGFP versus parental MFE319 cells; assay: flow-cytometry growth competition
Procedure: as §1

parental 293T cells = assay: annexin–PI staining; conditions: for P3_avg (P3 = early apoptotic) / P5_avg (P5 = late apoptotic): Cell_Line WT, proportion of cells; for avgprop_P3 / avgprop_P4 / avgprop_P5 / avgprop_P2 / P2_viable / P3_AnnexinPos_PIneg / P4_PIpos_AnnexinNeg / P5_PIpos_Annexinpos / prop_P3 / prop_P4 / prop_P5 / prop_P2: WT; for avgprop_P3: average proportion AnnexinPos PIneg; for avgprop_P4: average proportion PIpos AnnexinNeg; for avgprop_P5: average proportion PIpos Annexinpos; for avgprop_P2: average proportion viable; for P2_viable / P3_AnnexinPos_PIneg / P4_PIpos_AnnexinNeg / P5_PIpos_Annexinpos: event count; for P2_viable / P3_AnnexinPos_PIneg / P4_PIpos_AnnexinNeg / P5_PIpos_Annexinpos / prop_P3 / prop_P4 / prop_P5 / prop_P2: single replicate; for prop_P3: proportion AnnexinPos PIneg; for prop_P4: proportion PIpos AnnexinNeg; for prop_P5: proportion PIpos Annexinpos; for prop_P2: proportion viable
Procedure: Cells were plated in six-well plates and treated with varying concentrations of compounds for 1 day. Cells were stained with annexin V–AF488 and PI following the manufacturer’s instructions (Thermo Fisher, V13241) and analyzed by flow cytometry (Beckman CytoFLEX LX), using untreated cells to establish gates.

[4] = test system: p53 luciferase transcriptional reporter in Huh7 cells; assay: p53 luciferase reporter assay; conditions: for p53 luciferase reporter signal (normalized), replicates: Huh7
Procedure: (§2) Huh7 and MFE319 cell lines stably expressing a p53 reporter (Addgene, 90363)[59] were generated. Cells were plated in 384-well plates (1,500 cells per well) and treated with varying concentrations of compound. Then, 16 h after treatment, firefly luciferase substrate was added to the cells and luminescence was monitored using an EnVision 2105 multimode plate reader.

[5] = test system: p53 luciferase transcriptional reporter in MFE319 cells; assay: p53 luciferase reporter assay; conditions: for p53 luciferase reporter signal (normalized), replicates: MFE319
Procedure: as §2

[6] = CellTiter-Glo cell viability; conditions: human, p53_construct WT, CTG 4 days, read-out: mean (normalized viability)
Procedure: (§3) Cells were plated in 384-well plates (typically 1,500 cells per well) with varying concentrations of compounds, with a total volume of 50 μl per well. CTG reagent was added (25 μl) to the solutions, mixed and read out using an EnVision 2105 multimode plate reader.

[7] = viability with doxycycline-inducible construct; conditions: human, read-out: mean_norm (normalized viability)
Procedure: as §3

[8] = test system: 293T cells expressing a dox inducible Halo–p53-Y220C ΔTAD–mCherry; assay: viability with doxycycline-inducible construct
Procedure: as §3

SMILES: CC[C@@H]1C(=O)N(C)c2cnc(Nc3ccc(C(=O)NC4CCN(C)CC4)cc3OC)nc2N1C1CCCC1 [BI2536]
- mCherry_percent ([1]; 0.1 nM): 80.66%
- mCherry_percent ([1]; 1 nM): 80.59%
- mCherry_percent ([1]; 10 nM): 80.93%
- activity / difference in cell survival in competition ([2]; 8-day competition): did not observe any activity
- normalized_mCherry_percentage ([2]; 0.02 nM): 98.51%
- normalized_mCherry_percentage ([2]; 0.2 nM): 98.69%
- normalized_mCherry_percentage ([2]; 1 nM): 100.1%
- normalized_mCherry_percentage ([2]; 5 nM): 117.7%
- merge_avg (growth competition, sheet 4H) ([3]; Concentration (pM) 19.5312): 0.9382
- merge_avg (growth competition, sheet 4H) ([3]; Concentration (pM) 78.125): 0.9005
- merge_avg (growth competition, sheet 4H) ([3]; Concentration (pM) 312.5): 0.9194
- merge_avg (growth competition, sheet 4H) ([3]; Concentration (pM) 1250): 0.8118
- enrichment of EGFP^+ (TP53-knockout) population ([3]; day 9, p53-01 at doses between 800 nM and 1.25 μM): no such activity
- P3_avg (P3 = early apoptotic) (parental 293T cells; Concentration 0.75): 0.04079
- P5_avg (P5 = late apoptotic) (parental 293T cells; Concentration 0.75): 0.01489
- P3_avg (P3 = early apoptotic) (parental 293T cells; Concentration 1.5): 0.1126
- P5_avg (P5 = late apoptotic) (parental 293T cells; Concentration 1.5): 0.03242
- avgprop_P3 (parental 293T cells; Concentration 0.75): 0.04079
- avgprop_P4 (parental 293T cells; Concentration 0.75): 0.03008
- avgprop_P5 (parental 293T cells; Concentration 0.75): 0.01489
- avgprop_P2 (parental 293T cells; Concentration 0.75): 0.9142
- P2_viable (parental 293T cells; Concentration 0.75): 2015 and 2037 and 2022
- P3_AnnexinPos_PIneg (parental 293T cells; Concentration 0.75): 93 and 83 and 95
- P4_PIpos_AnnexinNeg (parental 293T cells; Concentration 0.75): 62 and 58 and 80
- P5_PIpos_Annexinpos (parental 293T cells; Concentration 0.75): 28 and 35 and 36
- prop_P3 (parental 293T cells; Concentration 0.75): 0.04231 and 0.03751 and 0.04254
- prop_P4 (parental 293T cells; Concentration 0.75): 0.02821 and 0.02621 and 0.03583
- prop_P5 (parental 293T cells; Concentration 0.75): 0.01274 and 0.01582 and 0.01612
- prop_P2 (parental 293T cells; Concentration 0.75): 0.9167 and 0.9205 and 0.9055
- avgprop_P3 (parental 293T cells; Concentration 1.5): 0.1126
- avgprop_P4 (parental 293T cells; Concentration 1.5): 0.02945
- avgprop_P5 (parental 293T cells; Concentration 1.5): 0.03242
- avgprop_P2 (parental 293T cells; Concentration 1.5): 0.8255
- P2_viable (parental 293T cells; Concentration 1.5): 1572 and 1534 and 1608
- P3_AnnexinPos_PIneg (parental 293T cells; Concentration 1.5): 206 and 222 and 215
- P4_PIpos_AnnexinNeg (parental 293T cells; Concentration 1.5): 60 and 57 and 51
- P5_PIpos_Annexinpos (parental 293T cells; Concentration 1.5): 54 and 71 and 60
- prop_P3 (parental 293T cells; Concentration 1.5): 0.1089 and 0.1178 and 0.1112
- prop_P4 (parental 293T cells; Concentration 1.5): 0.03171 and 0.03025 and 0.02637
- prop_P5 (parental 293T cells; Concentration 1.5): 0.02854 and 0.03769 and 0.03102
- prop_P2 (parental 293T cells; Concentration 1.5): 0.8309 and 0.8142 and 0.8314
- induction of p53 reporter ([4]; 16 h, PMV6 at doses of 1.25–10 μM): no such effect
- p53 luciferase reporter signal (normalized), replicates ([4]; log Concentration (pM) 1.68867): 1.071 and 1.082 and 0.9754
- p53 luciferase reporter signal (normalized), replicates ([4]; log Concentration (pM) 1.9897): 0.9944 and 0.9877 and 0.9088
- p53 luciferase reporter signal (normalized), replicates ([4]; log Concentration (pM) 2.29073): 0.9631 and 0.9698 and 0.9782
- p53 luciferase reporter signal (normalized), replicates ([4]; log Concentration (pM) 2.59176): 1.0179 and 0.8887 and 0.8977
- p53 luciferase reporter signal (normalized), replicates ([4]; log Concentration (pM) 2.89279): 1.088 and 0.9771 and 0.9776
- p53 luciferase reporter signal (normalized), replicates ([4]; log Concentration (pM) 3.19382): 1.04 and 1.0179 and 1.023
- p53 luciferase reporter signal (normalized), replicates ([4]; log Concentration (pM) 3.49485): 0.8529 and 0.9603 and 1.044
- p53 luciferase reporter signal (normalized), replicates ([4]; log Concentration (pM) 3.79588): 0.8775 and 0.9273 and 0.8786
- p53 luciferase reporter signal (normalized), replicates ([4]; log Concentration (pM) 4.09691): 0.9161 and 0.9032 and 0.92
- p53 luciferase reporter signal (normalized), replicates ([4]; log Concentration (pM) 4.39794): 0.8747 and 0.91 and 0.9648
- p53 luciferase reporter signal (normalized), replicates ([4]; log Concentration (pM) 4.69897): 0.9245 and 0.9167 and 0.9228
- p53 luciferase reporter signal (normalized), replicates ([4]; log Concentration (pM) 5): 0.7964 and 0.863 and 0.8635
- induction of p53 reporter ([5]; 16 h): no induction of luciferase activity
- p53 luciferase reporter signal (normalized), replicates ([5]; log Concentration (pM) 1.68867): 0.8432 and 0.8795 and 0.997
- p53 luciferase reporter signal (normalized), replicates ([5]; log Concentration (pM) 1.9897): 1.008 and 0.9306 and 1.09
- p53 luciferase reporter signal (normalized), replicates ([5]; log Concentration (pM) 2.29073): 0.7831 and 0.9939 and 0.826
- p53 luciferase reporter signal (normalized), replicates ([5]; log Concentration (pM) 2.59176): 1.029 and 1.032 and 0.9459
- p53 luciferase reporter signal (normalized), replicates ([5]; log Concentration (pM) 2.89279): 0.8553 and 0.942 and 1.018
- p53 luciferase reporter signal (normalized), replicates ([5]; log Concentration (pM) 3.19382): 0.956 and 0.9365 and 0.9572
- p53 luciferase reporter signal (normalized), replicates ([5]; log Concentration (pM) 3.49485): 0.8748 and 0.9709 and 0.8007
- p53 luciferase reporter signal (normalized), replicates ([5]; log Concentration (pM) 3.79588): 0.8943 and 0.9669 and 0.8623
- p53 luciferase reporter signal (normalized), replicates ([5]; log Concentration (pM) 4.09691): 0.6004 and 0.8065 and 0.6757
- p53 luciferase reporter signal (normalized), replicates ([5]; log Concentration (pM) 4.39794): 0.6617 and 0.6465 and 0.5696
- p53 luciferase reporter signal (normalized), replicates ([5]; log Concentration (pM) 4.69897): 0.5274 and 0.6902 and 0.6941
- p53 luciferase reporter signal (normalized), replicates ([5]; log Concentration (pM) 5): 0.7269 and 0.634 and 0.6632
- viability at 4 days ([6]; Compound_conc 0.0488281): 97%
- viability at 4 days ([6]; Compound_conc 0.0976562): 111%
- viability at 4 days ([6]; Compound_conc 0.195312): 98.9%
- viability at 4 days ([6]; Compound_conc 0.390625): 103%
- viability at 4 days ([6]; Compound_conc 0.78125): 103%
- viability at 4 days ([6]; Compound_conc 1.5625): 105%
- viability at 4 days ([6]; Compound_conc 3.125): 101%
- viability at 4 days ([6]; Compound_conc 6.25): 80.9%
- viability at 4 days ([6]; Compound_conc 12.5): 64.4%
- viability at 4 days ([6]; Compound_conc 25): 62.4%
- viability at 4 days ([6]; Compound_conc 50): 49.4%
- viability at 4 days ([6]; Compound_conc 100): 42%
- viability ([7]; dox 100, Concentration 0.0390625): 99%
- viability ([7]; dox 100, Concentration 0.078125): 86.5%
- viability ([7]; dox 100, Concentration 0.15625): 88.6%
- viability ([7]; dox 1000, Concentration 0.0390625): 97.3%
- viability ([7]; dox 1000, Concentration 0.078125): 89.3%
- viability ([7]; dox 1000, Concentration 0.15625): 88.7%
- viability ([7]; dox 1000, Concentration 0.3125): 83%
- viability ([7]; dox 1000, Concentration 0.625): 74.2%
- viability ([7]; dox 1000, Concentration 1.25): 48.7%
- viability ([7]; dox 1000, Concentration 2.5): 18.6%
- viability ([7]; dox 1000, Concentration 5): 14.5%
- viability ([7]; dox 1000, Concentration 10): 10.7%
- change of potency upon doxycycline induction ([8]; dox 0, 100, 1000 ng/mL, 4 days): without impacting the potency
- mean_norm (normalized viability) ([8]; dox 0, Concentration 0.0390625): 0.9266
- mean_norm (normalized viability) ([8]; dox 0, Concentration 0.078125): 0.8991
- mean_norm (normalized viability) ([8]; dox 0, Concentration 0.15625): 0.8734
- mean_norm (normalized viability) ([8]; dox 0, Concentration 0.3125): 0.835
- mean_norm (normalized viability) ([8]; dox 0, Concentration 0.625): 0.7837
- mean_norm (normalized viability) ([8]; dox 0, Concentration 1.25): 0.5152
- mean_norm (normalized viability) ([8]; dox 0, Concentration 2.5): 0.218
- mean_norm (normalized viability) ([8]; dox 0, Concentration 5): 0.1689
- mean_norm (normalized viability) ([8]; dox 0, Concentration 10): 0.1644
- mean_norm (normalized viability) ([8]; dox 100, Concentration 0.3125): 0.8537
- mean_norm (normalized viability) ([8]; dox 100, Concentration 0.625): 0.6735
- mean_norm (normalized viability) ([8]; dox 100, Concentration 1.25): 0.3823
- mean_norm (normalized viability) ([8]; dox 100, Concentration 2.5): 0.2022
- mean_norm (normalized viability) ([8]; dox 100, Concentration 5): 0.161
- mean_norm (normalized viability) ([8]; dox 100, Concentration 10): 0.1435
